The target of one experiment is NMDA receptor. Kind of experiment: 3H-MK 801 (dizocilpine) binding in vitro, rat brain membranes. The settings on record: displacement of 5 nM ³H-MK 801, washed rat brain membranes; high affinity values determined from biphasic displacement curves; read-out: IC₅₀. How it is done: 1. ^3H-MK 801 (dizocilpine) binding in vitro
³H-MK 801 binding was performed as described in Ransom, R.W. and Stec, N.L., J. Neurochem. 51 (1988) 830-836, with extensively washed rat brain membranes prepared according to the following scheme. Frozen whole rat brain was thawed and cerebellum and medulla oblongata were removed on ice. The tissue was then homogenized with an Ultra Turrax (maximal energy) during 30 sec at 4°C in 50 volumes of Tris·HC1 (5mM) with ethylenediaminetetraacetic acid (EDTA) disodium (10 mM, pH = 7.4). The homogenate was centrifuged at 48'000 x g for 10 min. The pellet was rehomogenized with the same volume of the same buffer and the homogenate was then incubated at 37°C for 10 min. After centrifugation the pellet was rehomogenized under the same conditions and frozen at -80°C in 35 ml fractions for at least 16 hours and not more than 2 weeks.
On the day of experiment, the homogenate was thawed 15 minutes at 37°C and centrifuged as above. The pellet was rehomogenized in 25 volumes of Tris·HC1 buffer (5mM, pH = 7.4) and the homogenate was recentrifuged. This procedure was repeated twice. The final pellet was rehomogenized in 25 volumes of Tris·HC1 buffer (5 mM, pH = 7.4) related to the original wet weight and used as such in the assay. Final concentration in the assay was 20 mg/ml.
300 µl of tracer solution (final concentration 5 nM ³H-MK 801) in Tris·HC1 buffer (5 mM, pH 7.4) were incubated with 100 µl of test solution (100 µl of Tris·HC1 buffer for the total binding or 100 µl of buffer plus N-(1-(2-thienyl)cyclohexyl)piperidine (TCP) (final concentration 0.1 µM) for non specific binding). Glutamate, glycine and spermidine (final concentrations 1nM) were added together in 100 µl volume. 500 µl of homogenate (final concentration 20 mg/ml) were then added in the plastic reaction tubes. After 2 hours of incubation at room temperature, the suspension was filtered (Whatmann GF/B, presoaked in 0.05% polyethylenimine for 2 hours) and washed 5 times with 3 ml of cold buffer. The air-dried (3 min) filters were counted in 10 ml of Ultima-gold (Packard) after agitation (10 min.) and standing for 2 hours at 3°C in vials.
These are high affinity values determined from biphasic displacement curves.

The next experiment relates to embryonic rat cortices. The experiment is described as follows: Acute glutamate neurotoxicity in cortical cell cultures (lactate dehydrogenase release). Format: cell-based. The settings on record: neuronal degeneration, 500 µM glutamate for 5 to 30 minutes at room temperature, lactate dehydrogenase in supernatant after overnight at 37°C, read-out: IC₅₀. How it is done: 2. Acute Glutamate Neurotoxicity
Single cell suspensions were prepared from embryonic rat cortices (E16-17) by digestion with dispase 2.4 U/ml (BOEHRINGER) and subsequent trituration with fire polished pasteur pipettes. The cells were then plated on poly-D-lysine (SIGMA) coated 96 well microtiter plates (NUNC, 10⁵ cells/well) in a total volume of 100 µl Dulbeccos modified essential medium (DMEM, GIBCO) supplemented with 10% horse serum and penicillin/streptomycin (SIGMA). 5 days later, non-neuronal cell division was halted by exposure to […] combined with a 50% exchange of culture medium. The cultures were used for neurotoxicity assays from 8-12 days in vitro.
Acute glutamate toxicity was performed according to D.W. Choi. J. Koh and S. Peters, J. Neurosci. 8 (1988) 185-196, in 100 µl of a control salt solution (CSS: 120 mM NaCl, 5.4 mM KCl, 0.8 mm MgCl₂, 1.8 mM CaCl₂, 25 mM Tris HCl (pH 7.4 at 25°C) and 15 mM glycose) with 500 µM glutamate for 5 to 30 minutes at room temperature with or without addition of substances to be tested.
After washing, the cultures were maintained in 100 µl CSS overnight at 37°C. For quantitation of neurodegeneration, lactate dehydrogenase was measured in the cell culture supernatant as described by J.G. Klingman, D.M. Hartley and D.W. Choi, J. Neurosci. Meth. 31 (1990) 47-51 using a BIOMEK workstation (BECKMAN). […] From dose response curves IC₅₀ values were calculated.

Structures are written as SMILES.

As for `CC(CCN1CCC(Cc2ccccc2)CC1)Cc1ccc(O)cc1` (racemic) [Ex. 6, rac.-4-[2-Methyl-4-[4-(phenylmethyl)-1-piperidinyl]butyl]phenol], the figures for the IC50 on NMDA receptor and in the experiment on embryonic rat cortices were 530 nM and 3500 nM, respectively.

For `CC(Cc1ccc(O)cc1)C(C)N1CCC(Cc2ccccc2)CC1` (racemic) [Ex. 10, rac.-4-[2-Methyl-3-[4-(phenylmethyl)-1-piperidinyl]butyl]phenol], the IC50 on NMDA receptor is 150 nM; in the experiment with embryonic rat cortices it was 120 nM.

Take `CC(Cc1ccccc1)CN1CCC(Cc2ccccc2)CC1` (racemic) [Ex. 21, rac.-1-(2-Methyl-3-phenylpropyl)-4-(phenylmethyl)piperidine]: the IC50 at NMDA receptor is 1400 nM; with embryonic rat cortices, 13000 nM.

On to `C[C@@H](CCN1CCC(Cc2ccccc2)CC1)[C@@H](O)c1ccc(O)cc1` (relative stereo) [Ex. 5, (R*,S*)-rac.-α-(4-Hydroxyphenyl)-β-methyl-4-(phenylmethyl)-1-piperidinebutanol], for which the IC50 at NMDA receptor amounted to 300 nM; in the experiment on embryonic rat cortices, 1900 nM.

`C[C@@H](CN1CCC(Cc2ccccc2)CC1)[C@@H](O)c1ccc(OCc2ccccc2)cc1` (relative stereo) [Ex. 7, (R*,S*)-rac.-β-Methyl-α-[4-(phenylmethoxy)phenyl]-4-(phenylmethyl)-1-piperidinepropanol]: the IC50 on NMDA receptor was determined as 1300 nM; with embryonic rat cortices, 64000 nM.

Turning to `C[C@@H](CN1CCC(Cc2ccccc2)CC1)[C@@H](O)c1ccc(O)cc1` (relative stereo) [Ex. 8, (R*,S*)-rac.-α-(4-hydroxyphenyl)-β-methyl-4-(phenylmethyl)-1-piperidinepropanol], the values for the IC50 at NMDA receptor and in the experiment with embryonic rat cortices were 5 nM and 40 nM, respectively.

Regarding `C[C@H](CN1CCC(Cc2ccccc2)CC1)[C@@H](O)c1ccc(O)cc1` (relative stereo) [Ex. 9, (R*,R*)-rac.-α-(4-Hydroxyphenyl)-β-methyl-4-(phenylmethyl)-1-piperidinepropanol], the IC50 amounted to 6 nM at NMDA receptor and 110 nM in the experiment on embryonic rat cortices.

In the case of `C[C@@H](CN1CCC(Cc2ccccc2)CC1)C(=O)c1ccc(OCc2ccccc2)cc1` [Ex. 12, (S)-2-Methyl-1-[4-(phenylmethoxy)phenyl]-3-[4-(phenylmethyl)-1-piperidinyl]-1-propanone], the IC50 at NMDA receptor is 900 nM; in the experiment with embryonic rat cortices, 66000 nM.

Consider `C[C@@H](CN1CCC(Cc2ccccc2)CC1)[C@@H](O)c1ccc(O)cc1` [Ex. 15, [R-(R*S*)]-α-(4-Hydroxyphenyl)-β-methyl-4-(phenylmethyl)-1-piperidinepropanol], for which the IC50 was determined as 1.3 nM on NMDA receptor and 60 nM with embryonic rat cortices.

As to `C[C@H](CN1CCC(Cc2ccccc2)CC1)[C@H](O)c1ccc(O)cc1` [Ex. 16, [S-(R*S*)]-α-(4-Hydroxyphenyl)-β-methyl]-4-(phenylmethyl)-1-piperidinepropanol], the IC50 on NMDA receptor worked out at 3 nM; in the experiment on embryonic rat cortices, 80 nM.

Values taken from patent publication EP0648744A1, “Phenylalkanolamine derivatives as antagonists of the NMDA receptor” (F. HOFFMANN-LA ROCHE AG, priority 1993, dated 1995).
